Measurements taken from patent US20230077723A1, “N-SUBSTITUTED-3,4-(FUSED 5-RING)-5-PHENYL-PYRROLIDINE-2-ONE COMPOUNDS AS INHIBITORS OF ISOQC AND/OR QC ENZYME” (Scenic Immunology B.V., priority 2019, published 2023).
Read-outs that look alike come from different tables or passages of the source.

Test system: pyroglutamylated CD47 (pE-CD47) in KBM7 cells
Test: Assay 6 - cell-based potency assay (pE-CD47 CC2C6 staining vs total CD47)
Design: species or system human
Settings: CC2C6 signal
Method: Cells were spun for 4 minutes at 1500 rpm and washed once with PBS/0.5% BSA. Cells were spun down again and the supernatant was removed and incubated in 100 uL antibody staining solution (PBS/0.5% BSA/0.1 μg/mL DAPI (4′,6-diamidino-2-phenylindole, ThermoFisher Scientific) and a mixture of 1:500 FITC-conjugated anti-human CD47 clone 2D3, which recognizes total CD47 irrespective of its pyroglutamylation state, and 1:500 Alexa647-conjugated anti-human CD47 clone CC2C6, which specifically detects pyroglutamylated CD47) for 2 hours at 4° C. Next, the cells were spun down and washed twice with 2×150 μL PBS/0.5% BSA to remove unbound antibody. Cells were again spun down and taken up in 300 μL FACS buffer before analysis on a Celesta FACS machine (BD Biosciences).
KBM7 cells (Kotecki et al., 1999) were infected with lentivirus produced by transfecting pSCNC-LentiCRISPR-QPCTL or pSCNC-LentiCRISPR-CD47 into HEK-293T cells according to standard protocols. After 24 hours incubation, cells were selected with puromycin (Invivogen, 1 μg/mL) for 48 hours. Cells were stained for total CD47 and pE-CD47 and QPCTL k.o. cells were sorted out as negative for pE-CD47, and CD47 k.o. cells as negative for total CD47, using a FACSAria III and FACS Diva software (BD Biosciences).
In order to test compounds for their effect on pyroglutamylation in live cells, 25000 KBM7 cells per well were seeded in a 96-well U-bottom plate in 150 μl IMDM/10% FCS/1% Pen/Strep medium and a 10-point 2-fold dilution range of test compounds. After 72 hours incubation at 37° C., 5% CO2, cells were stained for total CD47 and pE-CD47 and analyzed on a BD Celesta using FACS Diva software (BD Biosciences). Cells gated for DAPI negativity were recorded and the median fluorescence intensity (MFI) of each sample was transformed to linearly scale between the MFI's of wildtype and CD47 knockout cells (in case of the 2D3 antibody) and the wildtype and QPCTL knockout cells (in case of the CC2C6 antibody). IC50's were calculated by 3 parameter logistic regression of the CC2C6 signal vs. compound concentration, where the top of the sigmoidal curve was fixed at 1, using R and the drc package (http://www.r-project.org, https://cran.r-project.org/web/packages/drc/index.html).

[1] = Homo sapiens, KBM-7, 72 h, read-out: Cell Pot. Assay No. 6
[2] = Homo sapiens, KBM-7, 72 h, Table 2, read-out: Cell Potency Assay 6 (Comparison Data)

| Structure (SMILES) | IC50 [1] [µM] | IC50 [2] [µM] | IC50 (72 hours, read-out: Cell Pot. Assay No. 6) [µM] |
| --- | --- | --- | --- |
| Cc1c2c(nn1C)C(=O)N(c1ccc3[nH]cnc3c1)C2c1ccc(N2CCC3(COC3)C2)cc1F (centres unmarked) [FRPPO-097] | < 1 | – | – |
| Cc1c2c(nn1C)C(=O)N(c1ccc3[nH]cnc3c1)C2c1ccc(N2CC3(CCOC3)C2)cc1F (centres unmarked) [FRPPO-095] | 1 to 5 | – | – |
| O=C1c2scnc2C(c2ccc(N3CCC(F)(F)C3)cc2F)N1c1ccc2[nH]cnc2c1 (centres unmarked) [FRPPO-054] | 1 to 5 | – | – |
| Cc1c2c(nn1C)C(=O)N(c1ccc3[nH]cnc3c1)C2c1ccc(N2C3CCC2COC3)cc1F (centres unmarked) [FRPPO-093] | 1 to 5 | – | – |
| Cc1c2c(nn1C)C(=O)N(c1ccc3[nH]cnc3c1)C2c1ccc(-c2cnc(C(F)(F)F)s2)cc1F (centres unmarked) [FRPPO-144] | < 1 | – | – |
| Cc1c2c(nn1C)C(c1ccc(N3CCC(F)(F)C3)cc1F)N(c1ccc3[nH]cnc3c1)C2=O (centres unmarked) [FRPPO-046] | 5 to 50 | – | – |
| CCCOc1ccc(C2c3c(nn(C)c3C)C(=O)N2c2ccc3[nH]cnc3c2)cc1 (racemic) [FRPPO-001] | < 1 | < 1 | – |
| Cc1c2c(nn1C)C(=O)N(c1ccc3[nH]cnc3c1)C2c1ccc(N2CCC(F)C2)cc1F (centres unmarked) [FRPPO-073] | 1 to 5 | – | – |
| Cc1c2c(nn1C)C(=O)N(c1ccc3[nH]cnc3c1)C2c1ccc(N2CCC(F)(F)C2)c(F)c1F (centres unmarked) [FRPPO-066] | – | – | 1 to 5 |
| Cc1nn(C)c2c1C(c1ccc(-c3cnn(C(F)(F)F)c3)cc1)N(c1ccc3[nH]cnc3c1)C2=O (centres unmarked) [FRPPO-175] | < 1 | – | – |
| Cn1nc(C2CC2)c2c1C(=O)N(c1ccc3[nH]cnc3c1)C2c1ccc(N2CCC(F)(F)C2)cc1 (centres unmarked) [FRPPO-168] | 1 to 5 | – | – |

Continued, values first:

| IC50 [1] [µM] | IC50 [2] [µM] | IC50 (72 hours, read-out: Cell Pot. Assay No. 6) [µM] | Structure (SMILES) |
| --- | --- | --- | --- |
| 1 to 5 | – | – | CCCOc1ccc(C2c3c(C)nn(C)c3C(=O)N2c2ccc3[nH]cnc3c2)cc1 (centres unmarked) [FRPPO-002] |
| – | ≥ 50 | – | CCCOc1ccc(C2c3c(nn(C)c3C)C(=O)N2c2cc(C)c3nnc(C)n3c2)cc1 (racemic) [REF-004, reference compound] |
| – | > 6.25 | – | CCCOc1ccc(C2c3c(nn(C)c3C)C(=O)N2c2ccc3nnn(C)c3c2)cc1 (racemic) [REF-001, reference compound] |
| < 1 | – | – | Cc1c2c(nn1C)C(=O)N(c1ccc3[nH]cnc3c1)C2c1ccc(N2CCC(F)(F)C2)c(F)c1F (centres unmarked) [FRPPO-154] |
| 1 to 5 | – | – | Cc1nn(C)c2c1C(c1ccc(N3CCC(F)(F)C3)cc1F)N(c1ccc3[nH]cnc3c1)C2=O (centres unmarked) [FRPPO-170] |
